# Data taken from the NIST ThermoML archive (doi:10.1021/je900137r).
# Numbers after ± are expanded uncertainties.
# Test: molar heat capacity at saturation pressure
# Conditions: Liquid, Vacuum adiabatic calorimetry
structure (smiles),measurement,setting,value
CCC [propane],molar heat capacity,88.92 K,84.87 ± 1.2 J/K/mol
same,molar heat capacity,91.12 K,84.92 ± 1.2 J/K/mol
same,molar heat capacity,92.73 K,84.92 ± 1.2 J/K/mol
same,molar heat capacity,94.89 K,85.02 ± 1.2 J/K/mol
same,molar heat capacity,96.47 K,84.96 ± 1.2 J/K/mol
same,molar heat capacity,98.58 K,85.12 ± 1.2 J/K/mol
same,molar heat capacity,100.13 K,85.19 ± 1.2 J/K/mol
same,molar heat capacity,102.21 K,85.32 ± 1.2 J/K/mol
same,molar heat capacity,103.73 K,85.36 ± 1.2 J/K/mol
same,molar heat capacity,105.78 K,85.44 ± 1.2 J/K/mol
same,molar heat capacity,107.27 K,85.47 ± 1.2 J/K/mol
same,molar heat capacity,109.28 K,85.76 ± 1.2 J/K/mol
same,molar heat capacity,110.76 K,85.79 ± 1.2 J/K/mol
same,molar heat capacity,112.74 K,85.84 ± 1.2 J/K/mol
same,molar heat capacity,114.19 K,85.97 ± 1.2 J/K/mol
same,molar heat capacity,116.15 K,86.05 ± 1.2 J/K/mol
same,molar heat capacity,117.58 K,86.14 ± 1.2 J/K/mol
same,molar heat capacity,119.51 K,86.16 ± 1.2 J/K/mol
same,molar heat capacity,120.93 K,86.45 ± 1.2 J/K/mol
same,molar heat capacity,122.83 K,86.51 ± 1.2 J/K/mol
same,molar heat capacity,124.23 K,86.53 ± 1.2 J/K/mol
same,molar heat capacity,126.12 K,86.66 ± 1.2 J/K/mol
same,molar heat capacity,127.5 K,86.9 ± 1.2 J/K/mol
same,molar heat capacity,129.36 K,86.88 ± 1.2 J/K/mol
same,molar heat capacity,130.73 K,87.09 ± 1.2 J/K/mol
same,molar heat capacity,132.57 K,87.07 ± 1.2 J/K/mol
same,molar heat capacity,133.93 K,87.31 ± 1.2 J/K/mol
same,molar heat capacity,135.75 K,87.22 ± 1.2 J/K/mol
same,molar heat capacity,137.1 K,87.67 ± 1.2 J/K/mol
same,molar heat capacity,138.9 K,87.5 ± 1.2 J/K/mol
same,molar heat capacity,140.23 K,87.61 ± 1.2 J/K/mol
same,molar heat capacity,142.01 K,87.94 ± 1.2 J/K/mol
same,molar heat capacity,143.34 K,87.91 ± 1.2 J/K/mol
same,molar heat capacity,145.1 K,88.06 ± 1.2 J/K/mol
same,molar heat capacity,146.41 K,88.35 ± 1.2 J/K/mol
same,molar heat capacity,148.16 K,88.33 ± 1.2 J/K/mol
same,molar heat capacity,149.46 K,88.44 ± 1.2 J/K/mol
same,molar heat capacity,151.2 K,88.72 ± 1.3 J/K/mol
same,molar heat capacity,152.48 K,88.71 ± 1.3 J/K/mol
same,molar heat capacity,154.21 K,88.83 ± 1.3 J/K/mol
same,molar heat capacity,155.47 K,89 ± 1.3 J/K/mol
same,molar heat capacity,157.2 K,89.06 ± 1.3 J/K/mol
same,molar heat capacity,158.45 K,89.26 ± 1.3 J/K/mol
same,molar heat capacity,160.15 K,89.66 ± 1.3 J/K/mol
same,molar heat capacity,161.4 K,89.43 ± 1.3 J/K/mol
same,molar heat capacity,163.09 K,90.05 ± 1.3 J/K/mol
same,molar heat capacity,164.34 K,89.53 ± 1.3 J/K/mol
same,molar heat capacity,166 K,90.04 ± 1.3 J/K/mol
same,molar heat capacity,167.25 K,90.06 ± 1.3 J/K/mol
same,molar heat capacity,168.9 K,90.24 ± 1.3 J/K/mol
same,molar heat capacity,170.14 K,90.37 ± 1.3 J/K/mol
same,molar heat capacity,171.79 K,90.38 ± 1.3 J/K/mol
same,molar heat capacity,173.01 K,90.28 ± 1.3 J/K/mol
same,molar heat capacity,174.65 K,90.89 ± 1.3 J/K/mol
same,molar heat capacity,175.86 K,90.91 ± 1.3 J/K/mol
same,molar heat capacity,177.49 K,91.25 ± 1.3 J/K/mol
same,molar heat capacity,178.7 K,91.17 ± 1.3 J/K/mol
same,molar heat capacity,180.31 K,91.67 ± 1.3 J/K/mol
same,molar heat capacity,181.51 K,91.3 ± 1.3 J/K/mol
same,molar heat capacity,183.12 K,91.84 ± 1.3 J/K/mol
same,molar heat capacity,184.31 K,91.75 ± 1.3 J/K/mol
same,molar heat capacity,185.91 K,92.02 ± 1.3 J/K/mol
same,molar heat capacity,187.09 K,92.23 ± 1.3 J/K/mol
same,molar heat capacity,188.68 K,92.09 ± 1.3 J/K/mol
same,molar heat capacity,189.85 K,92.57 ± 1.3 J/K/mol
same,molar heat capacity,191.44 K,92.72 ± 1.3 J/K/mol
same,molar heat capacity,192.61 K,92.88 ± 1.3 J/K/mol
same,molar heat capacity,194.18 K,93.05 ± 1.3 J/K/mol
same,molar heat capacity,195.34 K,93.67 ± 1.3 J/K/mol
same,molar heat capacity,196.91 K,93.56 ± 1.3 J/K/mol
same,molar heat capacity,198.06 K,93.95 ± 1.3 J/K/mol
same,molar heat capacity,199.62 K,94.02 ± 1.3 J/K/mol
same,molar heat capacity,200.76 K,94.12 ± 1.3 J/K/mol
same,molar heat capacity,202.32 K,94.07 ± 1.3 J/K/mol
same,molar heat capacity,203.45 K,94.68 ± 1.3 J/K/mol
same,molar heat capacity,205.01 K,94.36 ± 1.3 J/K/mol
same,molar heat capacity,206.14 K,94.22 ± 1.3 J/K/mol
same,molar heat capacity,207.69 K,94.92 ± 1.4 J/K/mol
same,molar heat capacity,208.8 K,94.54 ± 1.3 J/K/mol
same,molar heat capacity,210.35 K,95.41 ± 1.4 J/K/mol
same,molar heat capacity,211.45 K,95.58 ± 1.4 J/K/mol
same,molar heat capacity,213 K,96.05 ± 1.4 J/K/mol
same,molar heat capacity,214.1 K,96.24 ± 1.4 J/K/mol
same,molar heat capacity,215.65 K,96.38 ± 1.4 J/K/mol
same,molar heat capacity,216.73 K,96.69 ± 1.4 J/K/mol
same,molar heat capacity,218.28 K,97.14 ± 1.4 J/K/mol
same,molar heat capacity,219.35 K,97.4 ± 1.4 J/K/mol
same,molar heat capacity,220.9 K,96.94 ± 1.4 J/K/mol
same,molar heat capacity,221.97 K,97.43 ± 1.4 J/K/mol
same,molar heat capacity,223.51 K,97.28 ± 1.4 J/K/mol
same,molar heat capacity,224.57 K,97.58 ± 1.4 J/K/mol
same,molar heat capacity,226.12 K,98.17 ± 1.4 J/K/mol
same,molar heat capacity,227.16 K,98.39 ± 1.4 J/K/mol
same,molar heat capacity,228.72 K,98.66 ± 1.4 J/K/mol
same,molar heat capacity,229.75 K,98.99 ± 1.4 J/K/mol
same,molar heat capacity,231.31 K,99.11 ± 1.4 J/K/mol
same,molar heat capacity,232.33 K,99.49 ± 1.4 J/K/mol
same,molar heat capacity,233.9 K,99.63 ± 1.4 J/K/mol
same,molar heat capacity,234.9 K,99.41 ± 1.4 J/K/mol
same,molar heat capacity,236.47 K,99.64 ± 1.4 J/K/mol
same,molar heat capacity,237.46 K,100.12 ± 1.4 J/K/mol
same,molar heat capacity,239.04 K,100.21 ± 1.4 J/K/mol
same,molar heat capacity,240.02 K,100.5 ± 1.4 J/K/mol
same,molar heat capacity,241.61 K,100.94 ± 1.4 J/K/mol
same,molar heat capacity,242.57 K,101.2 ± 1.4 J/K/mol
same,molar heat capacity,244.17 K,101.8 ± 1.4 J/K/mol
same,molar heat capacity,245.12 K,101.78 ± 1.4 J/K/mol
same,molar heat capacity,246.72 K,102.66 ± 1.4 J/K/mol
same,molar heat capacity,247.66 K,102.27 ± 1.4 J/K/mol
same,molar heat capacity,249.28 K,103.18 ± 1.5 J/K/mol
same,molar heat capacity,250.2 K,102.98 ± 1.5 J/K/mol
